From patent US20260083851A1 (AVILAR THERAPEUTICS, INC., priority 2022, published 2026)
Where two headings read alike, the source gives them in different places.

What was measured:
HepG2 cells = assay: Cellular uptake assay (high-content imaging); assay type: cell-based, human; conditions: 100 nM AF488-labeled antibody, 6 hours at 37° C.
Text: The cellular uptake assay is designed to measure compound-mediated cellular uptake of fluorescently labeled antibody following ternary complex formation with the ASGPR receptor and endocytosis of the entire complex into cells. The optimal concentration of compound will result in the maximum number of cells with intracellular antibody and is represented as the peak ratio of antibody-positive cells over the total number of cells. As with the ternary complex formation assay, too much or too little compound will result in suboptimal complex formation and fewer cells will have measurable intracellular fluorescence.
Human IgG (Sigma-Aldrich, 14506) was covalently labeled with Alexa Fluor 488 using the Alexa Fluor™ 488 Protein Labeling Kit (Thermo Fisher, A10235) following the manufacturer's instructions. HepG2 cells were plated in DMEM supplemented with 10% FBS at 5,000 cells per well in a 96-well microtiter plate and incubated for approximately 18 hours at 37° C./5% CO2. For studies using human IgG, 100 nM AF488-labeled human IgG antibodies and serial dilutions of IgG-based degrader (0.1% DMSO final concentration) were added to the cells and the mixture was incubated at 37° C. for 6 hours. For studies using DNP, 100 nM AF488-labeled DNP antibodies and serial dilutions of DNP-based degrader (0.1% DMSO final concentration) were added to the cells and the mixture was incubated at 37° C. for 6 hours. HepG2 cells were fixed in 100% methanol at −20° C. for 20 min, washed 3× with PBS, then stained with DAPI (Thermo, Cat #H3570). HepG2 cells were imaged for DAPI and Alexa Fluor 488 using the Operetta CLS, high-content analysis system (PerkinElmer). Data is presented as the ratio of the number of cells positive for hIgG or DNP (AF-488 fluorescence) over the total cell number (measured by DAPI).

[1] = molecular target: T1, ASGPR receptor on HepG2 cells (ternary complex with AF488-labeled antibody) (Homo sapiens, UniProt P07306); assay: Ternary complex formation assay (flow cytometry, cell-associated AF488 fluorescence); assay type: cell-based; conditions: 100 nM AF488-labeled antibody, 1 hour at 4° C.
T1 construct: host or cells: HepG2
T1 sequence (P07306 1-291): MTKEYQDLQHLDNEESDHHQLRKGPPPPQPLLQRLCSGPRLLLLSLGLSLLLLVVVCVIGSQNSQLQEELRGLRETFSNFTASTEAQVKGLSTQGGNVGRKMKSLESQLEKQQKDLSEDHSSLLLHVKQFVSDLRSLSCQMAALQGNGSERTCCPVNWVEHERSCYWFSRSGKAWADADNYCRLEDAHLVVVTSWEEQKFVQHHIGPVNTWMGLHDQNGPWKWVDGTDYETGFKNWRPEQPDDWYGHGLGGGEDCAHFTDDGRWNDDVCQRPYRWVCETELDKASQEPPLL
T1 sequence (P07307 1-311 partner): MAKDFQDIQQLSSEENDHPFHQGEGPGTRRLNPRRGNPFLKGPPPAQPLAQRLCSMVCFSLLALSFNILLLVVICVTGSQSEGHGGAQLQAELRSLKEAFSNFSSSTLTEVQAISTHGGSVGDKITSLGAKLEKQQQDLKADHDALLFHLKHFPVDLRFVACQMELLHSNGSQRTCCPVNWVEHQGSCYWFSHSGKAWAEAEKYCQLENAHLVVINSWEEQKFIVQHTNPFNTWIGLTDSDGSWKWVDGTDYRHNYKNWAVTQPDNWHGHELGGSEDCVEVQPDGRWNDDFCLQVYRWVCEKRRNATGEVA

IgG = IgG SPR binding
ASGPR = molecular target: T2, ASGPR (Homo sapiens, UniProt P07306); assay: ASGPR SPR binding
T2 construct: biotin (biotinylated)
T2 sequence (P07306 1-291): T1 sequence (P07306 1-291)

[2] = the 25th table, class symbols, read-out: Uptake EC50
[3] = the 25th table, class symbols, read-out: TCF EC50
[4] = second table, read-out: ASGPR KD
[5] = Homo sapiens, Table 3, class symbols, read-out: Uptake Assay (EC50)
[6] = Table 3, class symbols, read-out: Ternary Complex EC50
[7] = Table 3, read-out: IgG SPR Binding KD
[8] = Table 3, read-out: ASGPR SPR Binding KD

Row | EC50 (HepG2 cells; [5]) | EC50 [1, 6] | Kd (IgG; [7]) | Kd (ASGPR; [8]) | EC50 ([1]; Table 3, numeric bounds, read-out: Ternary Complex EC50) | EC50 (HepG2 cells; Homo sapiens, Table 3, numeric bounds, read-out: Uptake Assay (EC50)) | SMILES | EC50 (HepG2 cells; [2]) | EC50 [1, 3] | Kd (IgG; second table, read-out: IgG KD) | Kd (ASGPR; [4])
1 | – | < 100 nM | < 100 nM | < 100 nM | – | > 1100 nM | CC(C)C[C@@H]1NC(=O)[C@H](Cc2cnc[nH]2)NC(=O)[C@H](Cc2c[nH]c3ccccc23)NC(=O)[C@H](C)NC(=O)[C@@H]2CSSC[C@H](NC(=O)[C@H](Cc3c[nH]c4ccccc34)NC(=O)[C@H](C(C)C)NC(=O)[C@H](CC(C)C)NC(=O)[C@H](CCC(=O)O)NC(=O)CNC1=O)C(=O)N[C@@H]([C@@H](C)O)C(=O)N1CCC[C@@H]1C(=O)N1C[C@H](NC(=O)COCCOCC(=O)NC[C@H]3OC[C@H](Nc4cccc(C(F)(F)F)n4)[C@@H](O)[C@H]3O)C[C@H]1C(=O)N[C@@H](CC(=O)O)C(=O)N2 [compound 28] | – | – | – | –
2 | < 100 nM | < 100 nM | < 100 nM | 100 to 500 nM | – | – | CC(C)C[C@@H]1NC(=O)[C@H](Cc2cnc[nH]2)NC(=O)[C@H](Cc2c[nH]c3ccccc23)NC(=O)[C@H](C)NC(=O)[C@@H]2CSSC[C@H](NC(=O)[C@H](Cc3c[nH]c4ccccc34)NC(=O)[C@H](C(C)C)NC(=O)[C@H](CC(C)C)NC(=O)[C@H](CCC(=O)O)NC(=O)CNC1=O)C(=O)N[C@@H]([C@@H](C)O)C(=O)N1CCC[C@@H]1C(=O)N1C[C@@H](NC(=O)COCCOCC(=O)NC[C@H]3OC[C@H](Nc4nc(C(F)(F)F)ccc4F)[C@@H](O)[C@H]3O)C[C@H]1C(=O)N[C@@H](CC(=O)O)C(=O)N2 [compound 33] | – | – | – | –
3 | 100 to 500 nM | < 100 nM | < 100 nM | < 100 nM | – | – | CC(C)C[C@@H]1NC(=O)[C@H](Cc2cnc[nH]2)NC(=O)[C@H](Cc2c[nH]c3ccccc23)NC(=O)[C@H](C)NC(=O)[C@@H]2CSSC[C@H](NC(=O)[C@H](Cc3c[nH]c4ccccc34)NC(=O)[C@H](C(C)C)NC(=O)[C@H](CC(C)C)NC(=O)[C@H](CCC(=O)O)NC(=O)CNC1=O)C(=O)N[C@@H]([C@@H](C)O)C(=O)N1CCC[C@@H]1C(=O)N1C[C@H](NC(=O)c3ccc(N4CCC(CN5CCN(C[C@H]6OC[C@H](Nc7cccc(C(F)(F)F)n7)[C@@H](O)[C@H]6O)CC5)CC4)cc3)C[C@H]1C(=O)N[C@@H](CC(=O)O)C(=O)N2 [compound 29] | – | – | – | –

The next lines start with the molecule.

Row | SMILES | EC50 (HepG2 cells; [5]) | EC50 [1, 6] | Kd (IgG; [7]) | Kd (ASGPR; [8]) | EC50 ([1]; Table 3, numeric bounds, read-out: Ternary Complex EC50) | EC50 (HepG2 cells; Homo sapiens, Table 3, numeric bounds, read-out: Uptake Assay (EC50)) | EC50 (HepG2 cells; [2]) | EC50 [1, 3] | Kd (IgG; second table, read-out: IgG KD) | Kd (ASGPR; [4])
4 | CC(C)C[C@@H]1NC(=O)[C@H](Cc2cnc[nH]2)NC(=O)[C@H](Cc2c[nH]c3ccccc23)NC(=O)[C@H](C)NC(=O)[C@@H](NC(=O)[C@H](CC(=O)O)NC(=O)CCOCCOCCOCCOCCNC(=O)CCCc2cn(CCCCCC(=O)NC(CCCCC(=O)NCCOCCOCCOCCOC[C@H]3OC[C@H](Nc4nccc(C(F)(F)F)n4)[C@@H](O)[C@H]3O)COCCC(=O)NCCOCCOCCOCCOC[C@H]3OC[C@H](Nc4nccc(C(F)(F)F)n4)[C@@H](O)[C@H]3O)nn2)CSSC[C@@H](C(=O)N[C@H](C(N)=O)[C@@H](C)O)NC(=O)[C@H](Cc2c[nH]c3ccccc23)NC(=O)[C@H](C(C)C)NC(=O)[C@H](CC(C)C)NC(=O)[C@H](CCC(=O)O)NC(=O)CNC1=O (stereo partly drawn) [compound 90] | – | – | – | – | – | – | < 100 nM | < 100 nM | < 100 nM | < 100 nM
5 | CC(=O)N[C@H]1[C@H](OCCCCOCCOCCOCCNC(=O)CCOCC(COCCC(=O)NCCOCCOCCOCCO[C@@H]2O[C@H](CO)[C@H](O)[C@H](O)[C@H]2NC(C)=O)NC(=O)CCCCCn2cc(CCCC(=O)NCCOCCOCCOCCOCCC(=O)N[C@H]3C[C@H]4C(=O)N[C@@H](CC(=O)O)C(=O)N[C@H]5CSSC[C@H](NC(=O)[C@H](Cc6c[nH]c7ccccc67)NC(=O)[C@H](C(C)C)NC(=O)[C@H](CC(C)C)NC(=O)[C@H](CCC(=O)O)NC(=O)CNC(=O)[C@H](CC(C)C)NC(=O)[C@H](Cc6cnc[nH]6)NC(=O)[C@H](Cc6c[nH]c7ccccc67)NC(=O)[C@H](C)NC5=O)C(=O)N[C@@H]([C@@H](C)O)C(=O)N5CCC[C@@H]5C(=O)N4C3)nn2)O[C@H](CO)[C@H](O)[C@@H]1O (stereo partly drawn) [compound 86] | – | – | – | – | – | – | > 1000 nM | > 1000 nM | < 100 nM | > 1000 nM
6 | CC(C)C[C@@H]1NC(=O)[C@H](Cc2cnc[nH]2)NC(=O)[C@H](Cc2c[nH]c3ccccc23)NC(=O)[C@H](C)NC(=O)[C@@H]2CSSC[C@H](NC(=O)[C@H](Cc3c[nH]c4ccccc34)NC(=O)[C@H](C(C)C)NC(=O)[C@H](CC(C)C)NC(=O)[C@H](CCC(=O)O)NC(=O)CNC1=O)C(=O)N[C@@H]([C@@H](C)O)C(=O)N1CCC[C@@H]1C(=O)N1C[C@@H](NC(=O)c3ccc(N4CCC(CN5CCN(C[C@H]6OC[C@H](Nc7nc(C(F)(F)F)ccc7F)[C@@H](O)[C@H]6O)CC5)CC4)cc3)C[C@H]1C(=O)N[C@@H](CC(=O)O)C(=O)N2 [compound 27] | < 100 nM | < 100 nM | < 100 nM | < 100 nM | – | – | – | – | – | –
7 | CC(C)C[C@@H]1NC(=O)[C@H](Cc2cnc[nH]2)NC(=O)[C@H](Cc2c[nH]c3ccccc23)NC(=O)[C@H](C)NC(=O)[C@@H]2CSSC[C@H](NC(=O)[C@H](Cc3c[nH]c4ccccc34)NC(=O)[C@H](C(C)C)NC(=O)[C@H](CC(C)C)NC(=O)[C@H](CCC(=O)O)NC(=O)CNC1=O)C(=O)N[C@@H]([C@@H](C)O)C(=O)N1CCC[C@@H]1C(=O)N1C[C@@H](NC(=O)COCCOCC(=O)NC[C@H]3OC[C@H](Nc4nccc(C(F)(F)F)n4)[C@@H](O)[C@H]3O)C[C@H]1C(=O)N[C@@H](CC(=O)O)C(=O)N2 [compound 34] | > 1000 nM | – | < 100 nM | > 1000 nM | > 964 nM | – | – | – | – | –
8 | CC(C)C[C@@H]1NC(=O)[C@H](Cc2cnc[nH]2)NC(=O)[C@H](Cc2c[nH]c3ccccc23)NC(=O)[C@H](C)NC(=O)[C@@H](NC(=O)[C@H](CC(=O)O)NC(=O)CCOCCOCCOCCOCCNC(=O)CCCc2cn(CCCCCC(=O)NC(COCCC(=O)NCCOCCOCCOCCO[C@@H]3O[C@H](CO)[C@H](O)[C@H](O)[C@H]3Nc3cncc(C(F)(F)F)n3)COCCC(=O)NCCOCCOCCOCCO[C@@H]3O[C@H](CO)[C@H](O)[C@H](O)[C@H]3Nc3cncc(C(F)(F)F)n3)nn2)CSSC[C@@H](C(=O)N[C@H](C(N)=O)[C@@H](C)O)NC(=O)[C@H](Cc2c[nH]c3ccccc23)NC(=O)[C@H](C(C)C)NC(=O)[C@H](CC(C)C)NC(=O)[C@H](CCC(=O)O)NC(=O)CNC1=O [compound 93] | – | – | – | – | – | – | < 100 nM | < 100 nM | < 100 nM | < 100 nM
9 | CC(C)C[C@@H]1NC(=O)[C@H](Cc2cnc[nH]2)NC(=O)[C@H](Cc2c[nH]c3ccccc23)NC(=O)[C@H](C)NC(=O)[C@@H]2CSSC[C@H](NC(=O)[C@H](Cc3c[nH]c4ccccc34)NC(=O)[C@H](C(C)C)NC(=O)[C@H](CC(C)C)NC(=O)[C@H](CCC(=O)O)NC(=O)CNC1=O)C(=O)N[C@@H]([C@@H](C)O)C(=O)N1CCC[C@@H]1C(=O)N1C[C@@H](NC(=O)c3ccc(N4CCC(CN5CCN(C[C@H]6OC[C@H](Nc7ccnc(C(F)(F)F)n7)[C@@H](O)[C@H]6O)CC5)CC4)cc3)C[C@H]1C(=O)N[C@@H](CC(=O)O)C(=O)N2 [compound 31] | < 100 nM | < 100 nM | < 100 nM | < 100 nM | – | – | – | – | – | –
